Experimental data as given in US20070128217A1 (priority 2003, published 2007).

Columns and labels:
[1] = test system: control sera (pooled serum of ten healthy LUMC hospital workers; commercial negative donor pooled serum from the Dutch bloodbank); type: binding, human; set-up: Binding of Control serum LUMC to linear peptides / Binding of Control serum Blood-bank to linear peptides / Binding of Control serum LUMC to looped peptides / Binding of Control Serum Blood-Bank to Looped peptides / Binding of Control serum LUMC to linear peptides of the protein M of SARS-CoV Urbani / Binding of Control serum Blood-bank to linear peptides of the protein M of SARS-CoV Urbani / Binding of Control serum LUMC to looped peptides of the protein M of SARS-CoV Urbani / Binding of Control Serum Blood-Bank to Looped peptides of the protein M of SARS-CoV Urbani: unit not given here
[2] = test system: rabbit serum obtained by immunizing a rabbit with the SARS-CoV strain Frankfurt 1; type: binding; set-up: Binding of a rabbit serum to linear peptides / Binding of a rabbit serum to looped peptides / Rabbit serum linear peptides / Rabbit serum looped peptides / Binding of a rabbit serum to linear peptides of protein N of SARS-CoV Urbani (Rabbit serum linear peptides) / Binding of a rabbit serum to looped/cyclic peptides of protein N of SARS-CoV Urbani (Rabbit serum looped peptides): unit not given here
[3] = test system: antibodies in sera from SARS patients (sera 1a, 1b, 2, 6, 37, 62, London, SARS-yellow, SARS-green); type: binding, human; set-up: Binding of serum 6 to linear peptides of protein X1 of SARS-CoV Urbani / Binding of serum 37 to linear peptides of protein X1 of SARS-CoV Urbani / Binding of serum 6 to looped/cyclic peptide (PEPSCAN-ELISA) / Binding of serum 37 to looped/cyclic peptide (PEPSCAN-ELISA) / Binding of serum 37 to looped/cyclic peptides of protein X1 of SARS-CoV Urbani / Binding of serum 6 to linear peptides of protein X2 / Binding of serum 37 to linear peptides of protein X2 / Binding of serum 37 to looped/cyclic peptides of protein X2 of SARS-CoV Urbani / Binding of serum 6 to linear peptides of protein M of SARS-CoV Urbani / Binding of serum 37 to linear peptides of protein M of SARS-CoV Urbani / Binding of serum 6 to looped/cyclic peptides of protein M of SARS-CoV Urbani / Binding of serum 37 to looped/cyclic peptides of protein M of SARS-CoV Urbani / Binding of serum 6 to linear peptides of protein X3 of SARS-CoV Urbani / Binding of serum 37 to linear peptides of protein X3 of SARS-CoV Urbani / Binding of serum 37 to looped/cyclic peptides of protein X3 of SARS-CoV Urbani / Binding of serum 6 to linear peptides of protein X4 of SARS-CoV Urbani / Binding of serum 37 to linear peptides of protein X4 of SARS-CoV Urbani / Binding of serum 37 to looped/cyclic peptides of protein X4 of SARS-CoV Urbani / Binding of serum 6 to linear peptides of protein X5 of SARS-CoV Urbani / Binding of serum 37 to linear peptides of protein X5 of SARS-CoV Urbani / Binding of serum 37 to looped/cyclic peptides of protein X5 of SARS-CoV Urbani / Binding of serum 6 to linear peptides of protein N of SARS-CoV Urbani / Binding of serum 37 to linear peptides of protein N of SARS-CoV Urbani / Binding of serum 6 to linear peptide (PEPSCAN-ELISA) / Binding of serum 1a to looped/cyclic peptides of protein N of SARS-CoV Urbani / Binding of serum 1b to looped/cyclic peptides of protein N of SARS-CoV Urbani / Binding of serum 2 to looped/cyclic peptides of protein N of SARS-CoV Urbani / Binding of serum 6 to looped/cyclic peptides of protein N of SARS-CoV Urbani / Binding of serum 37 to looped/cyclic peptides of protein N of SARS-CoV Urbani / Binding of serum 62 to looped/cyclic peptides of protein N of SARS-CoV Urbani / Binding of serum London to looped/cyclic peptides of protein N of SARS-CoV Urbani / Binding of serum SARS-green to looped/cyclic peptides of protein N of SARS-CoV Urbani: unit not given here

## KIILFLTLIVFTSCE
[1]
  Binding of Control Serum Blood-Bank to Looped peptides: 0.8
  Binding of Control serum Blood-bank to linear peptides: 0.8
  Binding of Control serum LUMC to linear peptides: 0.9
  Binding of Control serum LUMC to looped peptides: 0.9
[2]
  Rabbit serum linear peptides: 0.7
  Rabbit serum looped peptides: 0.9
[3]
  Binding of serum 1a to linear peptides of protein X4 of SARS-CoV Urbani: 0.8
  Binding of serum 1a to looped/cyclic peptides of protein X4 of SARS-CoV Urbani: 0.9
  Binding of serum 1b to linear peptides of protein X4 of SARS-CoV Urbani: 0.9
  Binding of serum 1b to looped/cyclic peptides of protein X4 of SARS-CoV Urbani: 0.2
  Binding of serum 2 to linear peptides of protein X4 of SARS-CoV Urbani: 0.7
  Binding of serum 2 to looped/cyclic peptides of protein X4 of SARS-CoV Urbani: 0.8
  Binding of serum 6 to linear peptides of protein X4 of SARS-CoV Urbani: 0.7
  Binding of serum 6 to looped/cyclic peptides of protein X4 of SARS-CoV Urbani: 0.6
  Binding of serum 37 to linear peptides of protein X4 of SARS-CoV Urbani: 1.1
  Binding of serum 37 to looped/cyclic peptides of protein X4 of SARS-CoV Urbani: 0.9
  Binding of serum 62 to linear peptides of protein X4 of SARS-CoV Urbani: 0.9
  Binding of serum 62 to looped/cyclic peptides of protein X4 of SARS-CoV Urbani: 0.9
  Binding of serum London to linear peptides of protein X4 of SARS-CoV Urbani: 0.8
  Binding of serum London to looped/cyclic peptides of protein X4 of SARS-CoV Urbani: 0.4
  Binding of serum SARS-green to linear peptides of protein X4 of SARS-CoV Urbani: 0.7
  Binding of serum SARS-green to looped/cyclic peptides of protein X4 of SARS-CoV Urbani: 0.7
  Binding of serum SARS-yellow to linear peptides of protein X4 of SARS-CoV Urbani: 0.9
  Binding of serum SARS-yellow to looped/cyclic peptides of protein X4 of SARS-CoV Urbani: 0.8

## GKVLPFHRWHTMVQT
[1]
  Binding of Control Serum Blood-Bank to Looped peptides: 0.5
  Binding of Control serum Blood-bank to linear peptides: 0.6
  Binding of Control serum LUMC to linear peptides: 0.3
  Binding of Control serum LUMC to looped peptides: 0.5
[2]
  Rabbit serum linear peptides: 0.0
  Rabbit serum looped peptides: 0.3
[3]
  Binding of serum 1a to linear peptides of protein X5 of SARS-CoV Urbani: 0.8
  Binding of serum 1a to looped/cyclic peptides of protein X5 of SARS-CoV Urbani: 0.8
  Binding of serum 1b to linear peptides of protein X5 of SARS-CoV Urbani: 0.0
  Binding of serum 1b to looped/cyclic peptides of protein X5 of SARS-CoV Urbani: 0.5
  Binding of serum 2 to linear peptides of protein X5 of SARS-CoV Urbani: 0.6
  Binding of serum 2 to looped/cyclic peptides of protein X5 of SARS-CoV Urbani: 0.6
  Binding of serum 6 to linear peptides of protein X5 of SARS-CoV Urbani: 0.3
  Binding of serum 6 to looped/cyclic peptides of protein X5 of SARS-CoV Urbani: 0.4
  Binding of serum 37 to linear peptides of protein X5 of SARS-CoV Urbani: 0.5
  Binding of serum 37 to looped/cyclic peptides of protein X5 of SARS-CoV Urbani: 0.6
  Binding of serum 62 to linear peptides of protein X5 of SARS-CoV Urbani: 0.8
  Binding of serum 62 to looped/cyclic peptides of protein X5 of SARS-CoV Urbani: 0.5
  Binding of serum London to linear peptides of protein X5 of SARS-CoV Urbani: 0.8
  Binding of serum London to looped/cyclic peptides of protein X5 of SARS-CoV Urbani: 0.3
  Binding of serum SARS-green to linear peptides of protein X5 of SARS-CoV Urbani: 0.3
  Binding of serum SARS-green to looped/cyclic peptides of protein X5 of SARS-CoV Urbani: 0.5
  Binding of serum SARS-yellow to linear peptides of protein X5 of SARS-CoV Urbani: 0.1
  Binding of serum SARS-yellow to looped/cyclic peptides of protein X5 of SARS-CoV Urbani: 0.4

## STNLCTHSFRKKQVR
[1]
  Binding of Control Serum Blood-Bank to Looped peptides: 0.5
  Binding of Control serum Blood-bank to linear peptides: 0.9
  Binding of Control serum LUMC to linear peptides: 0.8
  Binding of Control serum LUMC to looped peptides: 0.8
[2]
  Binding of a rabbit serum to linear peptides: 0.7
  Binding of a rabbit serum to looped peptides: 0.2
[3]
  Binding of serum 1a to looped/cyclic peptides of protein X2 of SARS-CoV Urbani: 0.5
  Binding of serum 1b to looped/cyclic peptides of protein X2 of SARS-CoV Urbani: 0.3
  Binding of serum 2 to looped/cyclic peptides of protein X2 of SARS-CoV Urbani: 0.5
  Binding of serum 6 to looped/cyclic peptides of protein X2 of SARS-CoV Urbani: 0.6
  Binding of serum 37 to looped/cyclic peptides of protein X2 of SARS-CoV Urbani: 0.5
  Binding of serum 62 to looped/cyclic peptides of protein X2 of SARS-CoV Urbani: 0.5
  Binding of serum London to looped/cyclic peptides of protein X2 of SARS-CoV Urbani: 0.2
  Binding of serum SARS-green to looped/cyclic peptides of protein X2 of SARS-CoV Urbani: 0.2
  Binding of serum SARS-yellow to looped/cyclic peptides of protein X2 of SARS-CoV Urbani: 0.5
  Recognition of the peptide by sera of SARS-CoV infected individuals, and form (linear, looped/cyclic) in which it is recognized: recognized in linear form
